Data: patent publication US20030130174A1, “Glycosulfopeptide inhibitors of leukocyte rolling and methods of use thereof” (priority 2001, published 2003)
Where a SMILES comes first, the peptide text is derived from it. [ ]: non-standard residue; d: D form. The star is where a group is joined. X1 = CC(=O)N[C@@H]1[C@@H](O[C@@H]2O[C@H](CO)[C@H](O)[C@H](O)[C@H]2O)[C@@H](O)[C@@H](CO[C@@H]2O[C@H](CO)[C@@H](O[C@@H]3O[C@H](CO)[C@H](O)[C@H](O[C@]4(C(=O)O)C[C@H](O)[C@@H](NC(C)=O)[C@H]([C@H](O)[C@H](O)CO)O4)[C@H]3O)[C@H](O[C@@H]3O[C@@H](C)[C@@H](O)[C@@H](O)[C@@H]3O)[C@H]2NC(C)=O)O[C@@H]1*; sY = N[C@@H](Cc1ccc(OS(=O)(=O)O)cc1)C(=O)O

Settings: mouse, in vivo
Protocol: Microscopic observations were made using an upright microscope (NIKON ECLIPSE E600-FN, Nikon UK Ltd, UK) equipped with a water immersion objective (40×/0.80 W). Images were recorded using a CCD camera (DAGE MTI DC-330, DAGE MTI Inc, Michigan City, Ind.) onto sVHS video-cassettes. Venules (20-40 μM diameter) were selected and typically observed for the entire experimental period. Centre-line blood flow velocity (VCL) in was measured in vessels of interest using a commercially available velocimeter (CIRCUSOFT, Hockessin, Del.). Vessels with VCL between 1 and 5 mm/s were selected for these studies.
Control leukocyte rolling was recorded exactly 30 min after exposure of the cremaster muscle for intravital microscopy since leukocyte rolling at this time is almost exclusively P-selectin-dependent . GSPs were injected at 31 min and their effects monitored for 10 min. […] Blood flow velocities and circulating leukocyte concentrations were measured at key times (before and after treatments) during experiments.

Compound: CC(=O)N[C@H]1[C@H](OC[C@H]2O[C@H](O[C@H](C)[C@H](NC(=O)[C@H](CCC(=O)O)NC(=O)[C@@H]3CCCN3C(=O)[C@H](CC(C)C)NC(=O)[C@H](Cc3ccccc3)NC(=O)[C@H](CC(=O)O)NC(=O)[C@H](Cc3ccc(OS(=O)(=O)O)cc3)NC(=O)[C@H](CC(=O)O)NC(=O)[C@H](CC(C)C)NC(=O)[C@H](Cc3ccc(OS(=O)(=O)O)cc3)NC(=O)[C@H](CCC(=O)O)NC(=O)[C@H](Cc3ccc(OS(=O)(=O)O)cc3)NC(=O)[C@@H](N)CCC(=O)O)C(=O)N[C@@H](CCC(=O)O)C(=O)N3CCC[C@H]3C(=O)N3CCC[C@H]3C(=O)N[C@@H](CCC(=O)O)C(=O)N[C@@H](CS)C(=O)O)[C@H](NC(C)=O)[C@@H](O[C@@H]3O[C@H](CO)[C@H](O)[C@H](O)[C@H]3O)[C@H]2O)O[C@H](CO)[C@@H](O[C@@H]2O[C@H](CO)[C@H](O)[C@H](O[C@]3(C(=O)O)C[C@H](O)[C@@H](NC(C)=O)[C@H]([C@H](O)[C@H](O)CO)O3)[C@H]2O)[C@@H]1O[C@@H]1O[C@@H](C)[C@@H](O)[C@@H](O)[C@@H]1O [2-GSP-6] (H-E[sY]E[sY]LD[sY]DFLPET(X1)EPPEC-OH)
- Systemic leukocyte counts following treatment: increased slightly
